Experimental data taken from publication PMC4501720 (PLoS ONE, 2015).

tested on: whole blood cells of group 3 pigs vaccinated with BCG-pAg85A; assay type: cell-based, pigs (Sus scrofa domestica)

| Substance | IFN-γ levels, BCG / pAg85A animal number 1 | IFN-γ levels, BCG / pAg85A animal number 2 | IFN-γ levels, BCG / pAg85A animal number 3 | IFN-γ levels, BCG / pAg85A animal number 4 | IFN-γ levels, BCG / pAg85A animal number 5 | IFN-γ levels, BCG / pAg85A animal number 6 |
| --- | --- | --- | --- | --- | --- | --- |
| 1–20: synthetic overlapping peptide of mature Ag85A, aa 1–20 (FSRPGLPVEYLQVPSPSMGR; UniProt P9WQP3 44-63, looked up, fragment) | <5 pg/mL | 305 pg/mL | <5 pg/mL | <5 pg/mL | 84 pg/mL | 13,875 pg/mL |
| 181–200: synthetic overlapping peptide of mature Ag85A, aa 181–200 (GPKEDPAWQRNDPLLNVGKL; UniProt P9WQP3 224-243, looked up, fragment) | 33 pg/mL | <5 pg/mL | 8 pg/mL | 17 pg/mL | <5 pg/mL | <5 pg/mL |
| 35–53: synthetic overlapping peptide of mature Ag85A, aa 35–53 (ALYLLDGLRAQDDFSGWDI; UniProt P9WQP3 78-96, looked up, fragment) | 4,594 pg/mL | 438 pg/mL | 74 pg/mL | <5 pg/mL | 2,105 pg/mL | <5 pg/mL |
| 61–80: synthetic overlapping peptide of mature Ag85A, aa 61–80 (YDQSGLSVVMPVGGQSSFYS; UniProt P9WQP3 104-123, looked up, fragment) | 8,179 pg/mL | 354 pg/mL | 579 pg/mL | 75 pg/mL | 3,611 pg/mL | 444 pg/mL |
| Ag85A tub: recombinant E. coli derived histidine-tagged Ag85A of M. tuberculosis | 145,331 pg/mL | 50,084 pg/mL | 68,850 pg/mL | 3,712 pg/mL | 27,544 pg/mL | 14,506 pg/mL |
| 241–260: synthetic overlapping peptide of mature Ag85A, aa 241–260 (QDAYNAGGGHNGVFDFPDSG; UniProt P9WQP3 284-303, looked up, fragment) | 40 pg/mL | <5 pg/mL | <5 pg/mL | <5 pg/mL | <5 pg/mL | 66 pg/mL |
| 261–280: synthetic overlapping peptide of mature Ag85A, aa 261–280 (THSWEYWGAQLNAMKPDLQR; UniProt P9WQP3 304-323, looked up, fragment) | 31 pg/mL | <5 pg/mL | <5 pg/mL | 157 pg/mL | 728 pg/mL | 1,240 pg/mL |
| 151–170: synthetic overlapping peptide of mature Ag85A, aa 151–170 (GLLDPSQAMGPTLIGLAMGD; UniProt P9WQP3 194-213, looked up, fragment) | 1,020 pg/mL | <5 pg/mL | 257 pg/mL | 71 pg/mL | 349 pg/mL | <5 pg/mL |
| 81–100: synthetic overlapping peptide of mature Ag85A, aa 81–100 (DWYQPACGKAGCQTYKWETF; UniProt P9WQP3 124-143, looked up, fragment) | 1,900 pg/mL | 56 pg/mL | 2,968 pg/mL | 170 pg/mL | 1,547 pg/mL | <5 pg/mL |
| 101–120: synthetic overlapping peptide of mature Ag85A, aa 101–120 (LTSELPGWLQANRHVKPTGS; UniProt P9WQP3 144-163, looked up, fragment) | 150 pg/mL | 1,646 pg/mL | 1,177 pg/mL | <5 pg/mL | 319 pg/mL | <5 pg/mL |
| 51–70: synthetic overlapping peptide of mature Ag85A, aa 51–70 (WDINTPAFEWYDQSGLSVVM; UniProt P9WQP3 94-113, looked up, fragment) | 5,083 pg/mL | <5 pg/mL | <5 pg/mL | <5 pg/mL | 3,125 pg/mL | <5 pg/mL |
| 111–130: synthetic overlapping peptide of mature Ag85A, aa 111–130 (ANRHVKPTGSAVVGLSMAAS; UniProt P9WQP3 154-173, looked up, fragment) | 15,124 pg/mL | 2,879 pg/mL | 1,415 pg/mL | 33 pg/mL | 961 pg/mL | <5 pg/mL |
| 211–230: synthetic overlapping peptide of mature Ag85A, aa 211–230 (CGNGKPSDLGGNNLPAKFLE; UniProt P9WQP3 254-273, looked up, fragment) | 46 pg/mL | <5 pg/mL | 13 pg/mL | <5 pg/mL | <5 pg/mL | 218 pg/mL |
| 141–160: synthetic overlapping peptide of mature Ag85A, aa 141–160 (QQFVYAGAMSGLLDPSQAMG; UniProt P9WQP3 184-203, looked up, fragment) | 9,718 pg/mL | 232 pg/mL | 1,330 pg/mL | 894 pg/mL | 3,006 pg/mL | 837 pg/mL |
| 11–30: synthetic overlapping peptide of mature Ag85A, aa 11–30 (LQVPSPSMGRDIKVQFQSGG; UniProt P9WQP3 54-73, looked up, fragment) | <5 pg/mL | 1,115 pg/mL | <5 pg/mL | <5 pg/mL | 80 pg/mL | <5 pg/mL |
| 121–140: synthetic overlapping peptide of mature Ag85A, aa 121–140 (AVVGLSMAASSALTLAIYHP; UniProt P9WQP3 164-183, looked up, fragment) | 16,699 pg/mL | 2,367 pg/mL | 306 pg/mL | <5 pg/mL | 1,023 pg/mL | <5 pg/mL |
| 191–210: synthetic overlapping peptide of mature Ag85A, aa 191–210 (NDPLLNVGKLIANNTRVWVY; UniProt P9WQP3 234-253, looked up, fragment) | 266 pg/mL | <5 pg/mL | 156 pg/mL | 38 pg/mL | 560 pg/mL | <5 pg/mL |
| 221–240: synthetic overlapping peptide of mature Ag85A, aa 221–240 (GNNLPAKFLEGFVRTSNIKF; UniProt P9WQP3 264-283, looked up, fragment) | 470 pg/mL | 4,455 pg/mL | 1,075 pg/mL | <5 pg/mL | 303 pg/mL | 2,980 pg/mL |
| 231–250: synthetic overlapping peptide of mature Ag85A, aa 231–250 (GFVRTSNIKFQDAYNAGGGH; UniProt P9WQP3 274-293, looked up, fragment) | 11,639 pg/mL | 13,693 pg/mL | 423 pg/mL | <5 pg/mL | 1,018 pg/mL | 665 pg/mL |
| 201–220: synthetic overlapping peptide of mature Ag85A, aa 201–220 (IANNTRVWVYCGNGKPSDLG; UniProt P9WQP3 244-263, looked up, fragment) | 21 pg/mL | <5 pg/mL | 1,315 pg/mL | <5 pg/mL | <5 pg/mL | 197 pg/mL |
| 71–90: synthetic overlapping peptide of mature Ag85A, aa 71–90 (PVGGQSSFYSDWYQPACGKA; UniProt P9WQP3 114-133, looked up, fragment) | 217 pg/mL | <5 pg/mL | <5 pg/mL | <5 pg/mL | 289 pg/mL | <5 pg/mL |
